In general, IC50 refers to the concentration needed to halve the response being measured.

“And” between values parts separate entries of the source, which are not always exact repeats. Equal entries are not always repeated. “Also recorded” adds a separate entry of the source.

One series addresses MAT2A (Homo sapiens, UniProt P31153). As to the kind of experiment: MAT2A enzymatic assay (colorimetric Phosphate Assay Kit-PiColorLock). The series is classed as biochemical. Conditions: for MAT2A inhibitory activity (in words): up to 10 μM; for Maximum Inhibition (%): MAT2A enzymatic assay; for IC50: mean ± SD, at least three independent experiments, NA: no activity at 10 μM. How it is done:
The inhibition of MAT2A by each compound was determined using the colorimetric Phosphate Assay Kit-PiColorLock (#ab270004) as described previously. […] Assay measurements were performed in 1X buffer containing 50 mM Tris, 50 mM KCl, 10 mM MgCl2, and 0.05% Brij-35 (pH 8.0) in a final assay volume of 5 μL. A total of 2.5 μL of MAT2A protein with a final concentration of 20 μg/mL was added to each well of a 384 well assay plate containing 100 nL of each concentration of test compound dissolved in DMSO and incubated for 30 min at room temperature. ATP (100 μM final concentration) and L-Met (100 μM final concentration) were subsequently added and incubated for 30 min at room temperature. Then 20 μL of the phosphate assay kit substrate was added to each well, incubated at room temperature for 30 min, and then the absorbance was measured at 620 nm on a plate reader.

Series [1] is described as follows: Cytotoxicity of new compounds in HEK293A. The class given is cell-based. Conditions: human, HEK293A cells.
The test system of the next series is MTAP−/− HCT116 cells. As to the kind of experiment: Cellular antiproliferation assay (CCK8), MTAP-deleted HCT116. The series is classed as cell-based. Conditions: Homo sapiens, HCT-116, 72 h, mean ± SD. As for the experimental part: Cell viability assays were performed using Cell Counting Kit-8 (CCK8). Briefly, the MTAP-deleted HCT116 cells (Horizon) were plated at 1000 cells per well in 96-well plates in RPMI-1640 medium with 10% FBS and 1% PS, and then incubated at 37 °C under a 5% CO2 atmosphere overnight. The stock solutions were serially diluted 3-fold in DMSO to obtain an eight-point dilution curve with final compound concentrations and test compounds added. After 72 h, 10 μL CCK-8 dye was added in each well and the cells were incubated for 2–4 h. […] was measured at 450 nm. Dose response curves were analyzed in GraphPad Prism 8.

The next series concerns Parental HCT116 cells. As to the kind of experiment: Cellular antiproliferation assay (CCK8), parental HCT116. The series is classed as cell-based. Conditions: Homo sapiens, HCT-116, 72 h, mean ± SD.
Series [2] concerns HCT116 MTAP-deleted xenograft tumor. The class given is in vivo. Particulars: for tumor growth inhibition (TGI): 30 mg/kg orally q.d. for 19 days; for tumor growth inhibition (TGI) / T/C (%) relative tumor proliferation rate: BALB/c nude mice, HCT116 MTAP−/− xenograft; for T/C (%) relative tumor proliferation rate / Tumor volume / Histopathological analysis (H&E staining) of tumor tissues: 30 mg/kg orally q.d.; for Tumor volume: mean ± SD, at end of study; for Histopathological analysis (H&E staining) of tumor tissues: xenograft tumor tissue. How it is done: The antitumor efficacy of compound 17 was evaluated in female BALB/c nude mice using a standardized tumor xenotransplantation model. Animals were maintained under specific-pathogen-free (SPF) conditions, and all experimental procedures adhered to institutional animal care protocols approved by the Institute of Radiation Medicine, the Chinese Academy of Medical Sciences, and Peking Union Medical College, complying with national guidelines for humane treatment. For tumor induction, 2 × 10^6 HCT-116 MTAP^−/− cells suspended in PBS were subcutaneously implanted into the right hind flank. Following a 7-day engraftment period, mice were stratified into three cohorts (n = 5/group) via block randomization performed by an independent researcher to minimize selection bias. Compound 17 was administered orally at 30 mg/kg once daily, using 5% DMSO + 10% Solutol HS-15 + 85% saline as the vehicle solution. The positive control AG-270 was dosed at the same regimen (30 mg/kg, orally, once daily) with identical vehicle composition. Tumor progression was monitored every other day through digital caliper measurements, with volumes calculated using the ellipsoid approximation formula: V = 0.5 × length × width^2.

Chain of MAT2A (P31153 whole entry): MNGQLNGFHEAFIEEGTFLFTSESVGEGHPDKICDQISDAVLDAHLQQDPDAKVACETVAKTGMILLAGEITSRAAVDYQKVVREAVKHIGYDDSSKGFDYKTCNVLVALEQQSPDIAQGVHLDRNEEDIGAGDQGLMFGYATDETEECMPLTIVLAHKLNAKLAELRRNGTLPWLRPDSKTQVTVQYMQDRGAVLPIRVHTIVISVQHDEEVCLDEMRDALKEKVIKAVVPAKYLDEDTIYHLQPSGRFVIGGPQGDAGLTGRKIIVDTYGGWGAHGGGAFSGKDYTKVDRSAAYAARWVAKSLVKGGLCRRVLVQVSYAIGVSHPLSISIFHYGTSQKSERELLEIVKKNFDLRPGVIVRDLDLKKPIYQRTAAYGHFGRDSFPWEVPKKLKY

In the case of `CCOC(=O)c1[nH]c2c(c1Cc1ccccc1)C(=O)CC(c1ccccc1)C2` (centres unmarked) [Compound 9, Ethyl 3-Benzyl-4-oxo-6-phenyl-4,5,6,7-tetrahydro-1H-indole-2-carboxylate], the “MAT2A inhibitory activity (in words)” value on MAT2A was “no detectable activity; also recorded: inactive”. For the same compound, the half-inhibitory concentration (IC50) in series [1] was above 100 µM.

As for `CCOC(=O)c1[nH]c2c(c1Cc1ccccc1OC)C(=O)CC(c1ccc(OC)cc1)C2` (centres unmarked) [Compound A10], on MAT2A, the “Maximum Inhibition (%)” value is recorded as 65% and inhibition was half-maximal at 4.6 ± 0.3 µM (IC50). In series [1], this compound came in with a concentration for half-maximal inhibition (IC50) of 55.6 ± 7.8 µM.

For the compound `COc1ccc(NC(=O)c2cccc3ncsc23)cc1` [Compound 16, N-(4-Methoxyphenyl)benzo[D]thiazole-7-carboxamide], at MAT2A, the “MAT2A inhibitory activity (in words)” value was “complete loss of binding affinity; also recorded: abolished activity entirely”. The concentration for half-maximal inhibition (IC50) in series [1] is above 100 µM.

For the compound `CN(C)c1nc(=O)n(-c2ccccc2)c2cc(Cl)ccc12` [6 (AZ-28), AZ-28, reference compound], the IC50 in the series on MTAP−/− HCT116 cells worked out at 0.35 ± 0.13 µM; with Parental HCT116 cells it was 1.9 ± 0.2 µM.

As to `COc1ccc(NC(=O)c2cccc(N3CCCCC3)c2)cc1` [Compound 18, N-(4-Methoxyphenyl)-3-(piperidin-1-Yl)benzamide], at MAT2A, the “Maximum Inhibition (%)” value is 72% and the half-inhibitory concentration (IC50) turned out to be 0.78 ± 0.15 µM. For the same compound, in series [1], the IC50 was above 100 µM.

As to `COc1ccc(NC(=O)c2cccc(-n3cccc3)c2)cc1` [Compound 17, N-(4-Methoxyphenyl)-3-(1H-pyrrol-1-Yl)benzamide], in series [2], the “tumor growth inhibition (TGI)” value is given as 58.4%, the “T/C (%) relative tumor proliferation rate” value worked out at 44.4%, the Tumor volume came out at 659.9 ± 100.2 mm3 and the “Histopathological analysis (H&E staining) of tumor tissues” value is “reduced cellular proliferation”. In addition, in the series on MTAP−/− HCT116 cells, it took 1.4 ± 0.3 µM to reach half-maximal inhibition (IC50). In addition, at MAT2A, the “Maximum Inhibition (%)” value was 84% and the IC50 came to 0.43 ± 0.06 µM. Besides, the IC50 in the series with Parental HCT116 cells is above 10 µM. The compound also showed an IC50 in series [1] above 100 µM.

As for `COc1ccc(NC(=O)c2cn(C)c3ncccc23)cc1F` [Compound A11], the IC50 in the series with MTAP−/− HCT116 cells is 6 ± 0.4 µM; at MAT2A, 4.6 µM and 2.5 µM; in the series on Parental HCT116 cells it was above 10 µM; in series [1] it was above 100 µM. Also, the “Maximum Inhibition (%)” value at MAT2A worked out at 76%.

On to `COc1ccc(-c2c(Nc3ccccn3)[nH]c3c(C4=CCCCC4)c(-c4ccccc4)nn3c2=O)cc1` [AG-270, reference compound], for which, in series [2], the “tumor growth inhibition (TGI)” value came out at 80.4%, the “T/C (%) relative tumor proliferation rate” value came to 22.9%, the Tumor volume is given as 351.9 ± 96.1 mm3 and the “Histopathological analysis (H&E staining) of tumor tissues” value is recorded as “reduced cellular proliferation”.

As for `Cn1cc(C(=O)Nc2ccc3c(c2)OCO3)c2ccccc21` [Compound 14], the “MAT2A inhibitory activity (in words)” value at MAT2A is “completely lost its binding affinity; also recorded: abolished activity entirely”. Moreover, the IC50 in series [1] was above 100 µM.

In the case of `CCOC(=O)c1[nH]c2c(c1-c1ccccc1)C(=O)CC(c1ccccc1)C2` (centres unmarked) [Compound 8, Ethyl 4-Oxo-3,6-diphenyl-4,5,6,7-tetrahydro-1H-indole-2-carboxylate], at MAT2A, the “Maximum Inhibition (%)” value was found to be 47% and the IC50 stood at 6.8 ± 0.2 µM. This compound also had an IC50 in series [1] above 100 µM.

Take `COc1ccc(NC(=O)c2ccc3scnc3c2)cc1` [Compound 15, N-(4-Methoxyphenyl)benzo[D]thiazole-5-carboxamide]: the half-maximal inhibitory concentration (IC50) with MTAP−/− HCT116 cells was 2.2 ± 0.1 µM; on MAT2A, 0.91 ± 0.09 µM; with Parental HCT116 cells it was above 10 µM; in series [1], above 100 µM. Further, the “Maximum Inhibition (%)” value at MAT2A is on record as 80%.

In the case of `CCOC(=O)c1c(C)c(C(=O)Nc2ccc(OC)cc2)c(C)n1C` [Compound 11], the results for the IC50 (on MAT2A; in series [1]) were 15.6 ± 3.1 µM and above 100 µM, respectively.

For the compound `COc1ccc(NC(=O)c2cn(C)c3ccccc23)cc1` [Compound 13, N-(4-Methoxyphenyl)-1-methyl-1H-indole-3-carboxamide], at MAT2A, the “Maximum Inhibition (%)” value came to 82% and the IC50 turned out to be 2.1 ± 0.6 µM. The compound further displayed an IC50 in series [1] above 100 µM.

As for `CCOC(=O)c1[nH]c2c(c1Cc1ccccc1)C(=O)CC(C)(C)C2` [Compound 10], on MAT2A, the “MAT2A inhibitory activity (in words)” value was “no detectable activity; also recorded: inactive”. In series [1], this compound returned an IC50 above 100 µM.

Consider `CCn1cc(C(=O)Nc2ccc(OC)cc2)c2cccnc21` [Compound 12], for which, at MAT2A, the “Maximum Inhibition (%)” value is 86% and the IC50 was 2.9 ± 0.2 µM. The compound further had an IC50 in series [1] above 100 µM.

The values above are taken from article PMC12113668, “Discovery of Potential Scaffolds for Methionine Adenosyltransferase 2A (MAT2A) Inhibitors: Virtual Screening, Synthesis, and Biological Evaluation” (Molecules, 2025).
